Test results from paper PMC5601180, “Uptake and metabolism of sulphated steroids by the blood–brain barrier in the adult male rat” (Journal of Neurochemistry, 2017).
Where two headings read alike, the source gives them in different places.

Key:
[1] = rats, ref Kishimoto and Hoshi (1972), cited from earlier work
[2] = TLC analysis of 3H-steroid metabolites in brain fractions after perfusion; type: in vivo, rat; settings: after 0.5 min perfusion with the 3H-steroid sulphate
From the text: For the analysis of ^3H‐steroid metabolites, samples were spotted onto TLC plates for chromatography in the following solvent systems: A (for sulphated steroids), ethyl acetate:ethanol:ammonia (5 : 5 : 1, v/v); B (for free steroids) cyclohexane:n‐butyl acetate (1 : 2, v/v); C (for acetylated steroids), isooctane:ethyl acetate (13 : 7, v/v). Non‐radioactive steroid standards could be visualised by exposure to iodine vapour whereas the ^3H‐steroids were detected by placing the TLC plates in contact with imaging film for subsequent visualisation in a phosphorimager. Additional analysis of the steroid sulphates employed elution from the TLC plate in ammoniated ethanol then drying down and redissolving in sodium acetate buffer, 0.5 M, pH 5.0 for desulphation by incubation with Helix sulphatase (1 mg/mL, 40°C overnight followed by 55°C for 3 h). The resulting free steroids were adsorbed onto a 60 mg Oasis HLB® cartridge and eluted in 5 mL ethyl acetate. This eluate was dried down and analysed by TLC as above for free steroids. Further identification of ^3H‐steroid metabolites was obtained by acetylating them alongside both ^3H‐labelled and non‐radioactive standards. The TLC eluates or standards were dried down and redissolved in 200 μL pyridine. An equal volume of acetic anhydride was then added followed by incubation at 37°C for 2 h. […]

[3] = Bilateral brain perfusion, capillary depletion and separation of free and sulphated 3H-steroids; type: in vivo, rat
Description: Brains were bilaterally perfused for 0.5 min with ^3H‐labelled DHEAS 1.25 or 6.0 μCi (0.046 or 0.221 MBq)/mL (13.5 or 64.9 nM) or PregS 1.0 μCi (0.037 MBq)/mL (47.6 nM). The hindbrain was removed and each hemisphere homogenised in 2 vols (w/v) buffer containing (in mM) NaCl 141, KCl 4, NaH2PO4 1, CaCl2 2.8, MgCl2 1, HEPES 10, D‐glucose 10, pH 7.4. A sample of the homogenate of the whole right hemisphere was removed for scintillation counting, and the remainder retained as the whole brain homogenate.
The left hemisphere homogenate was separated into capillary‐enriched and capillary‐depleted fractions by the method of Triguero et al. (1990). For this, an equal volume of 26% dextran (w/w) solution was added to the homogenate and a sample taken for liquid scintillation counting before centrifugation at 5300 g for 15 min at 4°C. The upper layer was taken as the capillary‐depleted fraction and the pellet as the capillary‐enriched fraction.
Before extraction, fractions were sonicated in 5 vols ice‐cold, 5 mM potassium phosphate buffer, pH 7. Small portions (150 μL) were removed for measurement of protein content (Bradford 1976) and total radioactivity. For the latter, homogenate was solubilised (15 min, 20°C) in 10 vols Soluene then bleached (2 h, 50°C) with 0.3 vol hydrogen peroxide before counting in Ecoscint H containing Triton X‐100 (6% v/v), glacial acetic acid (0.6% v/v) and butylated hydroxytoluene (2% w/v). The remainder of each homogenate was extracted as described in detail elsewhere (Ebner et al. 2006; Sujkovic et al. 2009), to give free steroid and steroid sulphate fractions. First, homogenates were extracted into 20 vols ethanol containing acetic acid 3% (v/v). After centrifugation (28 000 g, 30 min, 25°C) to remove denatured protein, the extracts were delipidated by partitioning three times against 10 vols isooctane. Extracts were dried down under vacuum and redissolved in ethanol, which was then diluted to 20% v/v in 5 mM potassium phosphate buffer, pH 7.0 at a total volume of 20 ml. Separation of free and sulphated steroids was achieved by passage through a 60 mg Oasis MAX® cartridge. After washing the cartridge with 5 mL ethanol at 20% v/v in ammonium acetate (20 mM, pH 7), free steroids were eluted in 4 mL ethyl acetate. Passage of 20 mL ethanol at 60% v/v in formate/pyridine buffer (20 mM, pH 3) eluted any steroid glucuronides present. Finally, steroid sulphates were eluted in 30 mL 60% v/v ethanol containing ammonium carbonate 1% (w/v). To measure the radioactivity of each fraction, portions were dried down and then redissolved in Ecoscint H for counting. The remainder was dried down, redissolved in ethanol 96% v/v and stored at −20°C for subsequent analysis by TLC.

[4] = after intracerebral injection, rats; ref Asaba et al. (2000); cited from earlier work
[5] = Rat brain perfusion in situ: uptake of 3H-steroid sulphates and markers (Vd, Kin, PS); settings: for K in, unidirectional transfer coefficient: 0.5 min perfusion, corrected for vascular space (sucrose Vd), n ≥ 3
Description: Each animal also received intraperitoneal heparin, 10 000 U/kg. Body temperature was maintained at 37°C with a heating pad.
For analysis of free and sulphated steroids and for steryl‐sulfate sulfohydrolase (EC 3.1.6.2; trivial name steroid sulphatase) assays, both hemispheres were perfused, via right and left common carotid arteries, and 0.8 mM MgCl2 replaced 0.8 mM MgSO4 in the solution. The perfusate was delivered at a constant rate of 6 mL/min for hemi‐perfusions and 12 mL/min for bilateral perfusions, maintaining a net perfusion pressure of 40–70 mm Hg.
The remaining tissue of the right hemisphere was homogenised and samples (~50 mg) taken in triplicate (“remainder samples”). Triplicate samples of the perfusate were also taken. Samples were weighed into vials and dissolved (48 h at 20°C) in 0.5 mL Solvable before addition of 4.5 mL Optiphase 2 scintillation fluid for counting of radioactivity.
Brain uptake was calculated as a volume of distribution V d, where V d (μL/g) = (dpm/g tissue)/(dpm/μL perfusate). The unidirectional transfer coefficients, (K in, μL/g/min), for DHEAS and for PregS were calculated from the V d at 0.5 min, corrected with the V d for the vascular space marker sucrose.

[6] = after 0.5 min bilateral perfusion, mean ± SEM, n = 5

C[C@]12CC[C@H](OS(=O)(=O)O)CC1=CCC1C2CC[C@]2(C)C(=O)CCC12 (some centres unmarked) [DHEAS, dehydroepiandrosterone sulphate]
radiolabel accumulating as free steroid in the brain ([1]; intracardiac injection): ~50% | radiolabel accumulating as free steroid in the brain ([1]; intracerebral injection): 5% | metabolism in brain fractions [2]: underwent 17‐hydroxylation to form androstenediol in both the steroid sulphate and the free steroid fractions, with some additional formation of androstenedione in the latter | radioactivity in capillary fraction [3, 6]: 3451 ± 511 dpm/mg protein | radioactivity in parenchyma fraction [3, 6]: 3279 ± 388 dpm/mg protein | recovery of total homogenate radioactivity into capillary fraction [3, 6]: 2.2 ± 0.3% | recovery of total homogenate radioactivity into parenchyma fraction [3, 6]: 25.7 ± 2.3% | percentage of 3H-label as free steroid, parenchyma versus capillary ([3]; after 0.5 min perfusion, Fig. 4, p < 0.02): significantly higher percentage of the free steroid in the parenchyma than in the brain capillaries | desulphation on uptake into brain ([3]; within 0.5 min of uptake, brain perfusion in situ): > 50% | 3H-label appearing in the jugular vein as unchanged steroid sulphate [4]: 90% | K in, unidirectional transfer coefficient ([5]; Cerebellum, mean ± SEM): 38.6 ± 7.0 µL/g/min | K in, unidirectional transfer coefficient ([5]; Hippocampus, mean ± SEM): 45.4 ± 3.4 µL/g/min | K in, unidirectional transfer coefficient ([5]; Hypothalamus, mean ± SEM): 57.7 ± 2.7 µL/g/min | K in, unidirectional transfer coefficient ([5]; Medulla, mean ± SEM): 39.4 ± 8.9 µL/g/min | position of log PS in plot against cLog Poct relative to the line for passively permeating compounds ([5]; PS from K in as slope of Vd against time 0.25 to 0.5 min, implies net efflux): below the 95% confidence limits of the line of best fit for passively permeating compounds | K in, unidirectional transfer coefficient ([5]; Parietal cortex, mean ± SEM): 38.4 ± 4.5 µL/g/min | K in, unidirectional transfer coefficient ([5]; Remainder of brain tissue, mean ± SEM): 44.8 ± 4.1 µL/g/min | K in, unidirectional transfer coefficient ([5]; Striatum, mean ± SEM): 47.2 ± 3.9 µL/g/min | K in, unidirectional transfer coefficient ([5]; Sup. colliculus, mean ± SEM): 63.5 ± 6.7 µL/g/min | V d, corrected for sucrose space (vascular volume), control ([5]; brain uptake after 0.5 min perfusion without inhibitors (control of Fig. 3), mean ± SEM, n = 3): 32.47 ± 2.03 µL/g
